Results as given in US6419941B1, “Polyol ester insecticides and method of synthesis” (AVA Chemical Ventures L.L.C., priority 2000, dated 2002).
“Also recorded” adds a separate entry of the source.

Columns and labels:
Type in all cases: in vivo
two-spotted spider mite = test: effectiveness against two-spotted spider mite; conditions: comparison in words, FIG. 12
Method: (§1) The chain lengths were systematically varied to determine if the chain length was critical as to the effectiveness as insecticides. The compounds were tested against pear psylla, tobacco hornworms, tobacco aphids and two-spotted spider mites.

tobacco aphid = test: effectiveness against tobacco aphid; conditions: comparison in words, FIG. 9-11
Method: as §1

[1] = insecticidal activity, insect not specified; conditions: general statement, insect not named
pear psylla = test: kill of pear psylla by polyol esters; conditions: comparison in words, FIG. 1, 6, 7
Method: as §1

D-Glucitol, decanoate [sorbitol decanoate]
effectiveness against two-spotted spider mite (two-spotted spider mite): marginally more effective than the others
effectiveness against tobacco aphid (tobacco aphid): more effective than xylitol laurate; also recorded: better than a commercially available insecticidal soap product

D-Glucitol, octanoate [sorbitol octanoate]
effectiveness as insecticide / insecticidal activity [1]: more effective as insecticides
effectiveness (kill data) on pear psylla (pear psylla): the most effective
effectiveness against tobacco aphid (tobacco aphid): more effective than sorbitol decanoate

Xylitol decanoate
effectiveness as insecticide / insecticidal activity [1]: the most effective for xylitol
effectiveness (kill data) on pear psylla (pear psylla): most effective
effectiveness (kill data) on pear psylla (pear psylla; listed as C10 acid ester): the most effective

Xylitol dodecanoate [xylitol laurate]
effectiveness against tobacco aphid (tobacco aphid): more effective than xylitol decanoate; also recorded: better than a commercially available insecticidal soap product

sucrose octanoate
effectiveness as insecticide / insecticidal activity [1]: the monoesters were more effective as insecticides than the diesters and triesters
effectiveness (kill data) on pear psylla (pear psylla): monoesters that are more effective as insecticides than the diesters and triesters

sucrose stearate [commercial sucrose stearate product]
effectiveness as insecticide / insecticidal activity [1]: does not have insecticidal activity
